Positions of bridges follow the written chain, without caps; N, C: chain ends. Non-standard residues stand in square brackets, D forms with d. Residues, ends and D or L forms follow the SMILES beside them. No end group written: not given here. *: point of attachment. Biotin = O=C1N[C@H]2[C@H](CS[C@H]2CCCCC(=O)*)N1
Experiments:
CNE2 [1] = assay: Apoptosis by Cleaved Caspase 3/7 kit, flow cytometry; assay type: cell-based; conditions: FIG. 6A
Protocol: (§1) Therapeutic effects of 35-AP peptide were assessed by Cleaved Caspase 3/7 kit. Detailed steps were as followed: • 1) After the cells were planked for 24 hours, the peptide dissolved by 1640 was incubated with cells at 37° C. for four hours; • 2) Trypsinizing cells with TrypLE Expression, counting and adjusting the concentration to 1.0*10^6 cells/ml, and transferring 300 μl into flow cytometry tube; • 3) Adding 10 μl 30*FLICA working solution; • 4) Incubating the cells at 37° C. with 5% CO2 for one hour, and mixing once every 15 minutes; • 5) Washing with 2 ml Washing buffer, then centrifuging at 400 g force for 5 minutes; • 6) Re-suspending the precipitate with 1 ml Washing buffer; • 7) Detecting the staining signal using flow cytometer.

[2] = tested on: nasopharyngeal carcinoma cell CNE2; assay: Flow cytometry analysis of binding of Cy5-35 peptide; assay type: cell-based; conditions: 5 μM or 10 μM, on ice 30 minutes; FIG. 1C
Protocol: Flow cytometry analysis was applied to detect the binding affinity of Cy5-35 peptide to nasopharyngeal carcinoma cell CNE2. Firstly, the 35 peptide and control peptides separately coupled with fluorescent dye Cy5 were synthesized. Then, Cy5-35 peptide were incubated with cells. At the end, the binding efficacy was calculated using the flow cytometry analysis. Detailed steps were as followed: • 1) Trypsinizing cells, counting and adjusting the concentration to 1.0*10^6 cells/tube, and re-suspending cells with 200 μl RPMI 1640 medium; • 2) Adding Cy5-Control peptide or Cy5-35 peptide dissolved with PBS at a concentration of 5 μM or 10 μM, then incubating on ice for 30 minutes. • 3) Washing with 1 ml PBS, then centrifuging at 400 g force for 5 minutes; repeating this step twice; • 4) Re-suspending the precipitate with 1 ml TBS, • 5) Conducting the flow cytometry analysis.

[3] = tested on: tumor vessels and tumor cells; assay: Targeting and penetrating tumor vessels and tumor cells, frozen section and immunohistochemical assay; assay type: in vivo, BALB/C nude mice; conditions: 300 μg
Protocol: Cy5-35 peptide is tested to target and penetrate the vessels using the frozen section and immunohistochemical assay. Detailed steps were as followed: • 1) Using nine 4-week-old BALB/C nude mice • 2) Trypsinizing cells, counting and adjusting the concentration to 1.0*10^6 cells/ml, and re-suspending cells with 200 μl RPMI 1640 medium containing 20% Matrigel, then subcutaneously injecting into the nude mice; • 3) Observing and measuring the size of tumor after 1-2 weeks. Based on the tumor size, the mice were randomly divided into three groups (PBS, Cy5-Control and Cy5-35, three mice in each group); • 4) Intravenously injecting 200 μl PBS or 300 μg fluorescence peptide dissolved in 200 μl PBS; • 5) Obtaining the tumor tissues, and making frozen sections and cutting slides, storing at −80° C.; • 6) Fixing the slides in cooled acetone for 10 min, washing 5 times with PBS for 5 minutes; • 7) Soaking the slides with 3% H2O2 to remove endogenous peroxidase and then washing 3 times with 1 ml PBS for 5 minutes; • 8) Blocking with 10% BSA for 20 minutes at room temperature; • 9) Incubating with anti-CD31 mouse first antibody at 4° C. overnight; • 10) Washing 3 times with PBS for 5 minutes; • 11) Incubating anti-mouse FITC second antibody at room temperature for one hour, keeping it away from light, and then washing 3 times with 1 ml PBS for 5 min; • 12) Adding DAPI at room temperature and keeping for 5 minutes and then washing 3 times with 1 ml PBS for 5 minutes; • 13) Covering the slides with anti-fade, then observing the slides under the laser confocal microscope

MDA-MB-231 = assay: Near-infrared fluorescence imaging in MDA-MB-231 nude mice model; assay type: in vivo; conditions: FIG. 4D
Protocol: (§2) Cy5-35 peptide distribution was examined in the different organs and tumors of nude mice. Small animal imaging assay was operated as followed: • 1) Using nine 4-week-old BALB/C nude mice; • 2) Trypsinizing cells, counting and adjusting the concentration to 1.0*10^6 cells/ml, and re-suspending cells with 200 μl RPMI 1640 medium containing 20% Matrigel, then subcutaneously injecting into the nude mice; • 3) Observing and measuring the size of tumor after 1-2 weeks. Based on the tumor size, the mice were randomly divided into three groups (PBS, Cy5-Control and Cy5-35, 3 mice in each group); • 4) Intravenously injecting 200 μl PBS or 300 μg fluorescence peptide dissolved in 200 μl PBS; the peptide distribution is detected in both normal organs and tumor using Caliper IVIS Lumina II; • 5) Obtaining normal organs and the tumor tissues, homogenizing them, and calculating the fluorescence intensity of normal organs and the tumor for statistical analysis.
To detect whether Cy5-35 peptide can apply to other tumors, the peptides were applied to MDA-MB-231 nude mice model.

[4] = tested on: nasopharyngeal carcinoma cells CNE2; assay: Flow cytometry analysis of cell penetration; assay type: cell-based; conditions: 37° C. two hours; FIG. 2B
Excerpt: The flow cytometry analysis was applied to detect whether phage 35 can penetrate the nasopharyngeal carcinoma cells CNE2.

nasopharyngeal carcinoma = assay: Near-infrared fluorescence imaging of tumor, small animal imaging; assay type: in vivo, BALB/C nude mice; conditions: 24 hours after intravenous injection
Protocol: as §2

CNE2 cells [5] = conditions: 37° C. two hours
Protocol: The cellular immunofluorescence assay was applied to detect whether Biotin-35 peptide can penetrate CNE2 cells. Detailed steps were as followed: • 1) Incubating Biotin-35 peptide or Biotin-control peptide with cells at 37° C. for two hours; • 2) Washing three times with 1 ml PBS for 5 minutes; • 3) Fixing the cells with 4% paraformaldehyde for 10 minutes; • 4) Incubating cells with 0.1% Triton-X100 for 5 minutes; • 5) Blocking with 5% BSA for 30 minutes; • 6) Washing with 1 ml PBS twice; • 7) Adding FITC-streptavidin and avoiding light for one hour; • 8) Washing three times with 1 ml PBS for 5 minutes; • 9) Adding DAPI at a ratio of 1:2000 and keeping it away from light at room temperature for 5 minutes, • 10) Washing with 1 ml PBS for 5 minutes, • 11) Mounting samples with Anti-fade, and observing the samples under the laser confocal microscope.

[6] = tested on: nasopharyngeal carcinoma cell line, CNE2; assay: Blocking test in phage counting assay (35 peptide blocks phage 35 binding); assay type: cell-based; conditions: FIG. 1B
Protocol: The phage counting assay was conducted to first test the binding ability of phage 35 to nasopharyngeal carcinoma cell line, CNE2 and then test whether the 35 peptide can block the binding of the phage 35 to CNE2. The process will be described in detail hereinafter. • 1) Trypsinizing cells, counting to obtain 1.0*10^6 cells/tube, and re-suspending cells with 200 μl RPMI (Roswell Park Memorial Institute) 1640 medium; • 2) For the blocking test, adding the 35 peptide at a corresponding concentration and incubating on ice for 30 minutes (the binding assay skips this step and directly goes to the third step); • 3) Adding 1.0*10^8 phages, and incubating on ice for binding for one hour; • 4) After washing with 1 ml PBS (Phosphate Buffered Saline), the resulting products were centrifuged at 400 g force for 5 min; repeating this step three times; • 5) Re-suspending the precipitate with 1 ml TBS (Tris Buffered Saline), diluting the resulting suspension liquid 10^3-10^4 fold, and only taking 100 μl for phage count assay; • 6) Inoculating BL21 competent cell for T7 phage with 1:100 v/v, then shaking at 200 RPM at 37° C. for four hours until OD600 (Optical Density at a wavelength of 600 nm) reaches 0.5-1.0 when the bacteria are on the logarithmic phase. […] The titer of phage was calculated based on the diluted factors.

CNE2 [7] = assay: Cleaved Caspase3 cellular immunofluorescence assay; assay type: cell-based; conditions: incubated with CNE2; FIG. 6C
HONE1 = assay: Apoptosis by Cleaved Caspase 3/7 kit, flow cytometry; assay type: cell-based; conditions: FIG. 6B
Protocol: as §1

CNE1 = assay: as above; assay type: cell-based; conditions: FIG. 6B
Protocol: as §1

5-8F = assay: as above; assay type: cell-based; conditions: FIG. 6B
Protocol: as §1

SUNE1 = assay: as above; assay type: cell-based; conditions: FIG. 6B
Protocol: as §1

CNE2 cells [8] = assay: Therapeutic effect of 35-AP peptide in tumor-bearing mice; assay type: in vivo, BALB/C nude mice; conditions: 200 μg intravenously every other day 6 times, compared with two control groups, FIG. 6E
Protocol: Injecting 35-AP peptide to tumor-bearing mice to detect its therapeutic effect. Detailed steps were as follows: • 1) Selecting twenty four 4-week-old BALB/C nude mice; • 2) Trypsinizing CNE2 cells, counting and adjusting the concentration to 1.0*10^6 cells/ml, and re-suspending cells with 200 μl RPMI 1640 medium containing 20% Matrigel, then subcutaneously injecting 200 μl re-suspended cells into the nude mice; • 3) Observing and measuring the size of tumor after 1-2 weeks. Based on the tumor size, the mice were randomly divided into three groups (PBS, Control AP and 35-AP); • 4) Intravenously injecting 200 μl PBS or 200 μg fluorescence peptide dissolved in 200 μl PBS every other day for 6 times in total. Measuring the length and width of tumor before and after injection. The volume of tumor=0.52*(length*width*width); • 5) Performing statistical analysis of the size of tumors.

[9] = 2 h after intravenous injection, FIG. 3B

For “D (KLAKLAKKLAKLAK) (D-amino acids) [AP peptide, reference compound]”, the “apoptosis in CNE2” value (CNE2 [1]) was “cannot induce the apoptosis in CNE2”.

“Cy5-CRWYDENAC (disulfide 1-9) [Cy5-35 peptide]” was tested, and the “binding to CNE2 cells (flow cytometry)” value [2] was “binds to CNE2 cells in a dose-dependent manner”, the “co-localization with vessel marker CD31 in tumor” value [3, 9] was “co-localized with vessel marker CD31” and the “penetration of tumor vessels and tumor cells” value [3, 9] was “part of Cy5-35 peptides penetrated the tumor vessels and tumor cells”. For the same compound, the “co-localization with vessel marker CD31 in tumor” value ([3]; half an hour after intravenous injection, FIG. 3A) was “co-localized with vessel marker CD31”, the breast cancer imaging (MDA-MB-231) was “can also be applied in breast cancer imaging” and the “penetration into CNE2 (flow cytometry)” value [4] was “penetrates into CNE2 in a dose-dependent manner”. For the same compound, the “enrichment in tumor (NIR imaging)” value (nasopharyngeal carcinoma; FIG. 4A) was “significantly enriched in tumor”, the “residual peptide in lung (NIR imaging)” value (nasopharyngeal carcinoma; FIG. 4B) was “certain residual peptides in lung” and the “intensity of fluorescence in tumor versus other organs” value (nasopharyngeal carcinoma; FIG. 4C) was “significantly stronger than that in other organs”.

In the case of “Biotin-CRWYDENAC (cysteine pairing not given here) [Biotin-35 peptide]”, the “penetration into CNE2 (cellular immunofluorescence)” value (CNE2 cells [5]) is reported as “is able to penetrate into CNE2”.

For “D (KLAKLAKKLAKLAK-GG-CRWYDENAC) (KLAKLAKKLAKLAKGGCRWYDENAC; D-amino acids) [(35-AP)D]”, the “apoptosis in CNE2” value (CNE2 [1]) was “also activated the apoptosis of CNE2”.

With CRWYDENAC (disulfide 1-9) [35 peptide] the “blocking of phage 35 binding to CNE2” value [6] was “prevents phage 35 from binding to CNE2 in a dose-dependent manner” and the “apoptosis in CNE2” value (CNE2 [1]) was “cannot induce the apoptosis in CNE2”.

`CC(C)C[C@@H](NC(=O)[C@H](N)CCCCN)C(=O)N[C@H](C)C(=O)N[C@H](CCCCN)C(=O)N[C@H](CC(C)C)C(=O)N[C@H](C)C(=O)N[C@H](CCCCN)C(=O)N[C@H](CCCCN)C(=O)N[C@H](CC(C)C)C(=O)N[C@H](C)C(=O)N[C@H](CCCCN)C(=O)N[C@H](CC(C)C)C(=O)N[C@H](C)C(=O)N[C@H](CCCCN)C(=O)NCC(=O)NCC(=O)N[C@H]1CSSC[C@@H](C(=O)O)NC(=O)[C@H](C)NC(=O)[C@H](CC(N)=O)NC(=O)[C@H](CCC(=O)O)NC(=O)[C@H](CC(=O)O)NC(=O)[C@H](Cc2ccc(O)cc2)NC(=O)[C@H](Cc2c[nH]c3ccccc23)NC(=O)[C@H](CCCNC(=N)N)NC1=O` [35-AP peptide, D (KLAKLAKKLAKLAK)-GG-CRWYDENAC] (H-[dK][dL][dA][dK][dL][dA][dK][dK][dL][dA][dK][dL][dA][dK]GGCRWYDENAC-OH; disulfide 17-25 (inferred); N-terminus and C-terminus assumed) was tested, and the “cleaved Caspase3 activation” value (CNE2 [7]) was “cleaved Caspase3 was activated”, the “cell apoptosis in HONE1” value (HONE1) was “also led to cell apoptosis” and the “cell apoptosis in CNE1” value (CNE1) was “also led to cell apoptosis”. For the same compound, the “cell apoptosis in 5-8F” value (5-8F) was “also led to cell apoptosis”, the “cell apoptosis in SUNE1” value (SUNE1) was “also led to cell apoptosis” and the “apoptosis in CNE2” value (CNE2 [1]) was “can significantly promote the apoptosis”. The tumor volume (CNE2 cells [8]) was “reduced the tumor volume markedly”.
